Data: article PMC9968138, “Design, Synthesis, and Biological Evaluation of a Small-Molecule PET Agent for Imaging PD-L1 Expression” (Pharmaceuticals, 2023)
Where “and” joins values, the source holds several entries; their conditions need not be identical. Equal entries are not always repeated. Where two headings read alike, the source gives them in different places. One block for each compound: values may come before it.

What was measured:
[1] = MTT cell viability assay, PD-L1+ cells; assay type: cell-based; conditions: human, A375-hPD-L1 cells (PD-L1-transfected human melanoma A375), LP-F 0-100 μM
Experimental: (§1) Human melanoma cell line A375 (PD-L1^-) and human PD-L1 gene-transfected A375 cells (A375-hPD-L1, PD-L1^+) were cultured according to previous work.
(§2) Each well was seeded with 1 × 10^4 cancer cells in 96-well plates. LP-F dissolved in DMEM with gradient concentration (0, 12.5, 25, 50 and 100 μM) was added to each well at triple parallels, respectively, and incubated for 24 h. Then, MTT (5 mg/mL, 20 μL/well) was added and incubated for 4 h. 150 μL DMSO was added each well and shaken vigorously for 10 min to dissolve MTT crystallization. The absorbance of each sample was detected at 490 nm by ELISA, and percent cell viability was calculated based on Eq.: Percentage = sample well/reference well × 100%

[2] = MTT cell viability assay, PD-L1- cells; assay type: cell-based; conditions: human, A375 cells (human melanoma, PD-L1 negative), LP-F 0-100 μM
Experimental: as §1, §2

[3] = Partition coefficient test (1-octanol/water); assay type: physicochemical
Experimental: Amounts of 0.37 MBq [^18F]LP-F, 1000 μL water and 1000 μL 1-octanol were mixed in a tube. The mixture was thoroughly shaken for 5 min. After centrifugation, 500 μL water was withdrawn from water phase and its radioactivity was measured by a gamma counter. An equal volume of 1-octanol was withdrawn from the organic phase and measured. The partition coefficient (Log P) was calculated based on Eq. Log P = Lg(Concentration of [^18F]LP-F in 1-octanol/Concentration of [^18F]LP-F in water)
Then, 500 μL water and 500 μL 1-octanol were added to the above tube to replenish the water and the organic phase. The two-phase system was shaken again. Water and the organic phase were sampled and measured and Log P was calculated again. Repeat two more times.

[4] = In vitro stability assay in PBS (radio-HPLC); assay type: physicochemical; conditions: PBS pH 7.4, 37 °C, 4 h
Experimental: (§3) In order to investigate the in vitro stability of the radioactive probe, [^18F]LP-F (~14.8 MBq, 40 μL) was incubated in PBS (pH 7.4, 360 μL) at 37 °C for 4 h. [^18F]LP-F (~14.8 MBq, 40 μL) was also mixed with mouse serum (360 μL) and maintained at 37 °C for 4 h. Such PBS solution was subjected to stability analysis using radio-HPLC at 0, 1, 2 and 4 h. A 30 μL sample from the above mouse serum after protein precipitation with 30 μL acetonitrile was also subjected to stability analysis at 0, 1, 2 and 4 h.

[5] = In vitro stability assay in mouse serum (radio-HPLC); assay type: in vitro ADME; conditions: 37 °C, 4 h
Experimental: as §3

A375-hPD-L1 cells = experiment: Cell uptake of the tracer, PD-L1+ cells; assay type: cell-based, human; conditions: for cell uptake after blockade by LP-F: PD-L1+ cells blocked with 25 μM LP-F; for cell uptake: PD-L1+ cells
Experimental: as §1
(§4) A375 cells and A375-hPD-L1 cells (1 × 10^6) were added to each tube, separately. [^18F]LP-F (37 kBq/tube) diluted in DMEM was added and incubated at 37 °C for different periods (30, 60, 120, and 240 min). PD-L1^+ cells were incubated with 100 μL 25 μM LP-F for 30 min ahead to block PD-L1^+ cells and then incubated with [^18F]LP-F (37 kBq/tube) at same conditions. After incubation and wash, the cells’ radioactivity was measured.

A375 cells = experiment: Cell uptake of the tracer, PD-L1- cells; assay type: cell-based, human; conditions: 4 h
Experimental: as §1, §4

PD-L1 = molecular target: T1, PD-L1 (Homo sapiens, UniProt Q9NZQ7); experiment: Saturation binding assay on PD-L1+ cells; conditions: PD-L1+ cell, one-site model, read-out: dissociation constant (Kd)
T1 construct: expressed in transfected cells; host or cells: A375 human melanoma cells transfected with the human PD-L1 gene (A375-hPD-L1)
T1 sequence (Q9NZQ7 19-290): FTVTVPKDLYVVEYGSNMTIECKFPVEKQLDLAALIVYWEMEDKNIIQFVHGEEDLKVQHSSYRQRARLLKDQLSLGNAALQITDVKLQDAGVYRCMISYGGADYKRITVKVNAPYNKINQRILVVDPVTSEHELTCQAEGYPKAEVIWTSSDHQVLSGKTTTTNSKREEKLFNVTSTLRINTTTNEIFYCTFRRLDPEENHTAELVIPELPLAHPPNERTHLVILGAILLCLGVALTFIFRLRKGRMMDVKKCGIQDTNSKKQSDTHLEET
Experimental: as §1
PD-L1^+ cells (2 × 10^5) were added to each tube and incubated with the gradient of concentration of [^18F]LP-F dissolved in DMEM (0 to 128 nM) at 37 °C for 1 h. After incubation, the cells were centrifuged and washed by PBS twice and then were measured for radioactivity by a γ counter as total bound value. For the non-specific bound value, PD-L1^+ cells (2 × 10^5) were added to each tube and incubated with LP-F (50 μM) dissolved in DMEM for half an hour in advance and then incubated with above concentrations of [^18F]LP-F. After centrifugation and wash, the radioactivity was detected. The specific binding value is obtained by subtracting non-specific bound value from total bound value. The equilibrium dissociation constant (Kd) was calculated by non-linear fit in a one-site model through specific binding values and concentrations of [^18F]LP-F.

A375-hPD-L1 tumor = experiment: Micro-PET imaging, PD-L1+ tumor; assay type: in vivo, mice
Excerpt: (§5) Female BALB/c nude mice at age of 5~7 weeks were inoculated subcutaneously with 1 × 10^6 A375-hPD-L1 cells in saline at the left flank and 1 × 10^6 A375 cells at the right flank in the same mouse in order to eliminate individual differences. Animal study can be performed in accordance with the principles laid out by the ethical committee of Jiangsu Institute of Nuclear Medicine.
(§6) A375 (right)/A375-hPD-L1 (left) bilateral tumor-bearing mice (n = 3) were anesthetized and then intravenously injected with [^18F] LP-F (~7.4 MBq) dissolved in saline (200 μL). Dynamic scanning was performed for one hour. ASIPro software (Siemens) was applied to process the PET images. Dynamic images were reconstructed in OSEM3D/MAP algorithm and split into twelve frames. Quantification and analysis of region of interest (ROI) in tumors and organs were carried out.

A375 tumor = experiment: Micro-PET imaging, PD-L1- tumor; assay type: in vivo, mice
Excerpt: as §5, §6

[6] = Micro-PET imaging, non-target tissues (muscle, bone); assay type: in vivo, mice; conditions: up to 60 min
Excerpt: as §5, §6

SMILES: Cc1c(COc2cc(OCc3cccc(C#N)c3)c(CN3CCN(CCOCCOCCOCCF)CC3)cc2Cl)cccc1-c1ccc2c(c1)OCCO2 [LP-F]
viability at 24 h [1]: > 90%
viability at 24 h [2]: > 90%

logP ([3]; mean ± SD, read-out: partition coefficient (Log P)): 2.18 ± 0.16
Log P (single trial) ([3]; trials 1-3): 2.08 and 2.10
logP ([3]; trials 1-3, read-out: Log P (single trial)): 2.37
stability in PBS [4]: high stability
stability in mouse serum [5]: high stability
Kd (PD-L1): 226 nM
ratio of PD-L1+ tumor uptake to PD-L1- tumor uptake (A375-hPD-L1 tumor; 50 min): 2.95 ± 0.39 times
tumor-to-muscle ratio (T/M) (A375-hPD-L1 tumor; PD-L1+ tumor, 30 min post injection): 2.08 ± 0.38
maximum tumor uptake (A375-hPD-L1 tumor; PD-L1+ tumor, 50 min): 3.53 ± 0.46 %ID/mL
tumor-to-muscle ratio (T/M) (A375-hPD-L1 tumor; PD-L1+ tumor, 50 min): 2.20 ± 0.29
tumor-to-muscle ratio (T/M) (A375 tumor; 10 min): 0.82 ± 0.24
tumor-to-muscle ratio (T/M) (A375 tumor; 50 min): 0.75 ± 0.19
maximum tumor uptake (A375 tumor; 60 min): 1.23 ± 0.39 %ID/mL
tumor-to-muscle ratio (T/M) (A375 tumor; all the time): below 1
activity on the bone (defluorination, in vivo stability) [6]: no obvious activity on the bone
SMILES: Cc1c(COc2cc(OCc3cccc(C#N)c3)c(CN3CCN(CCOCCOCCOCC[18F])CC3)cc2Cl)cccc1-c1ccc2c(c1)OCCO2 [[^18F]LP-F]
cell uptake after blockade by LP-F (A375-hPD-L1 cells; 0.5 h): 1.42 ± 0.03 %AD
cell uptake after blockade by LP-F (A375-hPD-L1 cells; 4 h): 1.72 ± 0.02 %AD
cell uptake (A375-hPD-L1 cells; 30 min): 3.66 ± 0.20 %AD
cell uptake (A375-hPD-L1 cells; 4 h): 3.64 ± 0.19 %AD
maximum cell uptake (A375 cells): 1.41 ± 0.09 %AD
